Data from ChEMBL document CHEMBL1201862, “PubChem BioAssay data set” (2004).
Structures can show the parent of a compound that is named as a salt. Calls of active or inactive are those of the source.

What was measured:
Vero = assay: cells; type: functional; details: Chlorocebus sabaeus
P388/ADR = assay: cells; type: functional; details: Mus musculus
SN12K1 = assay: cells; type: functional; details: Homo sapiens
P388 = assay: cells; type: functional; details: Mus musculus
[1] = target: T1, Polyadenylate-binding protein 1 (Homo sapiens, UniProt P11940); assay: MLLE binding blockers, Cy5 peptide tracer – biochemical, fluorescence polarization, Cy5-PAM2 peptide, secondary, miRNA deadenylation inhibitor project, dose response (AID 602260); type: functional; details: read-out: IC50_Mean
T1 sequence (P11940 whole entry, the tested form may be a part): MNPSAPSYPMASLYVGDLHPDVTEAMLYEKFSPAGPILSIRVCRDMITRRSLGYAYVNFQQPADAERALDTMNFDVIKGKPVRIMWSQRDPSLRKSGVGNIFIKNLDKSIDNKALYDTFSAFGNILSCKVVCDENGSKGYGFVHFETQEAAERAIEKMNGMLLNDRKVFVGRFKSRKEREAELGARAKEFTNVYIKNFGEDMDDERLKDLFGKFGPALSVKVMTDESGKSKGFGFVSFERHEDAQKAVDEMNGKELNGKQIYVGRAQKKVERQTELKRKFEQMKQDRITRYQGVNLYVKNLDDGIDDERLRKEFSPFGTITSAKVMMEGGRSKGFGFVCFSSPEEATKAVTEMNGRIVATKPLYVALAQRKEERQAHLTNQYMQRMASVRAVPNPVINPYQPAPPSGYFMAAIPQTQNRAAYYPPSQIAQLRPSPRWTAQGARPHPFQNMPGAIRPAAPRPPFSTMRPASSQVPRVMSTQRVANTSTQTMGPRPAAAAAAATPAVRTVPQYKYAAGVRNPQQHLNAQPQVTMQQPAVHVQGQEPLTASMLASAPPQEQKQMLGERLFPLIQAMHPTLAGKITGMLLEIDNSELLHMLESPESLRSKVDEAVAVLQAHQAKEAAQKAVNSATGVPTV

[2] = target: T1, Polyadenylate-binding protein 1; assay: MLLE domain peptide-binding blockers, IC50 – biochemical, fluorescence polarization, FITC-PAM2 peptide, dose response (AID 602259); type: functional; details: read-out: IC50_Mean
[3] = target: T2, DNA repair protein RAD52 homolog (Homo sapiens, UniProt P43351); type: functional, biochemical
T2 sequence (P43351 whole entry): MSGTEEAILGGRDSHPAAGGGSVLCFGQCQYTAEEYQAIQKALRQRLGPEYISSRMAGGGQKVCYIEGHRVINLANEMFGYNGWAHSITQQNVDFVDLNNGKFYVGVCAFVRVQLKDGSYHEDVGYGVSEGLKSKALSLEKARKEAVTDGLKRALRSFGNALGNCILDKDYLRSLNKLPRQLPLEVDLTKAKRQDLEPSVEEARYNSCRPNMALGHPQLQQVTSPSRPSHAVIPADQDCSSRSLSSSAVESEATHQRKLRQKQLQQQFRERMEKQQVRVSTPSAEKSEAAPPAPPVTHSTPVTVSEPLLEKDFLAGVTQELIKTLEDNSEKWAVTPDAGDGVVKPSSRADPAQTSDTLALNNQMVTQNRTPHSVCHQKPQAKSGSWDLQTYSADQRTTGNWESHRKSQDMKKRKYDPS

[4] = target: T3, Endoribonuclease toxin MazF (Escherichia coli K-12, UniProt P0AE70); assay: activation of MazEF endoribonuclease cleavage – biochemical, fluorescence, single-stranded RNA substrate, uHTS hits, dose response (AID 588481); type: functional
T3 sequence (P0AE70 whole entry): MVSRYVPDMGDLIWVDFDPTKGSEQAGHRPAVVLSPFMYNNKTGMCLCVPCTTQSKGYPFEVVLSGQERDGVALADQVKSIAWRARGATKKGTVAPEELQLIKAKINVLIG

[5] = target: T3, Endoribonuclease toxin MazF; assay: substrate-only fluorescence increase artefacts – biochemical, single-stranded RNase substrate, counter-screen for MazEF activator project, dose response (AID 588502); type: functional
[6] = reduction of Shn3 3'UTR-driven luciferase in osteoblasts – cell-based, Clone20 osteoblasts, firefly luciferase, cherry-picked, dose response (AID 624132); type: functional;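 note: firefly luciferase luminescence from reporter carrying the Shn3 3'UTR in osteoblasts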
[7] = non-specific 3'UTR reporter inhibition in Clone20-Shn3RL – cell-based, Renilla luciferase, cherry-picked, counter-screen for Shn3 inhibitor project, dose response (AID 624133); type: functional
[8] = target: T4, Carboxy-terminal domain RNA polymerase II polypeptide A small phosphatase 1 (Homo sapiens, UniProt Q9GZU7); assay: CTDSP1 inhibitors, concentration-response, biochemical, absorbance readout, ultra-high-throughput screen actives (AID 540297); type: functional
T4 sequence (Q9GZU7 whole entry): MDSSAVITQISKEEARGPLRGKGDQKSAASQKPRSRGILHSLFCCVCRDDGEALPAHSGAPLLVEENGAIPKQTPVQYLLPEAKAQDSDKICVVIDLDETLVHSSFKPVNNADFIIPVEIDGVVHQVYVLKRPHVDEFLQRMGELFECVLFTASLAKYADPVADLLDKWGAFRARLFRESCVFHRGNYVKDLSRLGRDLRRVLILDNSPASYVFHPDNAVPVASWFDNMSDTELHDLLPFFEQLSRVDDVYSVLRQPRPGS

[9] = viability of uninfected HEp-2 cells – cell-based, HTS, cytotoxicity control for RSV inhibitor project, dose response (AID 2410); type: functional; details: human respiratory syncytial virus
cells [10] = assay: cells
cells [11] = type: functional
[12] = target: Eukaryotic translation initiation factor 4E (Mus musculus, UniProt P63073); assay: blockers of eIF4G binding by eIF4E – biochemical, TR-FRET, dose response (AID 855); type: functional;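 note: potency for disrupting eIF4E binding to eIF4GI seen as loss of FRET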
Eukaryotic translation initiation factor 4E, sequence (P63073 whole entry): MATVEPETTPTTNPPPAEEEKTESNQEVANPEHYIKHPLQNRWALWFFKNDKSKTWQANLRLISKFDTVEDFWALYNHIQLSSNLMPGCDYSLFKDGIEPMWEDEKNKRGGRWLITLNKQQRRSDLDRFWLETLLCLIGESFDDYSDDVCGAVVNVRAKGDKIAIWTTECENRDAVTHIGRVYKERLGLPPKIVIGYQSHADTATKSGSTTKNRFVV

[13] = HPDE-C7 pancreatic duct cell viability loss – fluorescence, HTS (AID 430); type: functional, cell-based; details: Homo sapiens
[14] = viability loss of HPDE-C7K cells – cell-based, fluorescence, HTS, primary screen (AID 431); type: functional; details: Homo sapiens
Cytochrome P450 2D6 = Cytochrome P450 2D6 (Homo sapiens, UniProt P10635);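 note: CYP2D6 member of a cytochrome P450 panel assay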
Cytochrome P450 2D6, sequence (P10635 whole entry): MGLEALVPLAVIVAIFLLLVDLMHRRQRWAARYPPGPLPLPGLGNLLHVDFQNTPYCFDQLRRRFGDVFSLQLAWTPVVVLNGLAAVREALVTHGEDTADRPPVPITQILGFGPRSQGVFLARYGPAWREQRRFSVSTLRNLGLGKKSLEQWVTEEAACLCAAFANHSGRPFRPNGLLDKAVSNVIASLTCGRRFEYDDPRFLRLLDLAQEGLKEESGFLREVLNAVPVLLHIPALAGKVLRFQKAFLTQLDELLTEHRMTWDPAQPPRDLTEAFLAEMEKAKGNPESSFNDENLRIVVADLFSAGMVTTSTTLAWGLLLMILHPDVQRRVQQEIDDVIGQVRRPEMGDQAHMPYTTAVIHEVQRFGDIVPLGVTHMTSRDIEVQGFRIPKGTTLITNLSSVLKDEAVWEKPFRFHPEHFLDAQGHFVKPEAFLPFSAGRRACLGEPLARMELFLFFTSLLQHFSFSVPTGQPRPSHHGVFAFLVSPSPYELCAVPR

[15] = viability of PTEN-deleted HCT116 cells – cell-based, HCT116 PTEN knockout, dose response (AID 1047); type: functional;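 note: HCT116 colon tumor cells with PTEN knocked out; cells exposed to compound for 60 hours before readout; potency for loss of cell viability measured by luminescence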
[16] = viability of HCT116 lacking mutant beta-catenin – cell-based, human colon tumor, dose response (AID 1045); type: functional;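 note: HCT116 colon tumor cells with beta catenin knocked out; cells exposed to compound for 60 hours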
[17] = target: T5, RNA-binding protein pos-1 (Caenorhabditis elegans, UniProt G5EF15); assay: disruptors of C. elegans POS-1 RNA interaction – biochemical, fluorescence polarization, dose response (AID 1964);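 note: purified POS-1 fused to maltose binding protein made in E. coli; potency of compounds blocking POS-1 binding to fluorescent RNA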
T5 sequence (G5EF15 whole entry): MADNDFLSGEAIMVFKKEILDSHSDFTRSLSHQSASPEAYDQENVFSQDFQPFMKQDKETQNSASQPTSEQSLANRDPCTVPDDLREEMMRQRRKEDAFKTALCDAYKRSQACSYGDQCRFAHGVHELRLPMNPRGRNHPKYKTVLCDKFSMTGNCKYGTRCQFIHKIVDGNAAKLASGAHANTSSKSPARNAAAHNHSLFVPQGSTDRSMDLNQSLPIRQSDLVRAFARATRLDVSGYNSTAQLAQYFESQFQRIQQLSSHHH

[18] = target: T6, Zinc finger protein mex-5 (Caenorhabditis elegans, UniProt Q9XUB2); assay: potency of MEX-5 RNA-binding blockers – biochemical, C. elegans, fluorescence polarization, dose response (AID 1960)
T6 sequence (Q9XUB2 whole entry): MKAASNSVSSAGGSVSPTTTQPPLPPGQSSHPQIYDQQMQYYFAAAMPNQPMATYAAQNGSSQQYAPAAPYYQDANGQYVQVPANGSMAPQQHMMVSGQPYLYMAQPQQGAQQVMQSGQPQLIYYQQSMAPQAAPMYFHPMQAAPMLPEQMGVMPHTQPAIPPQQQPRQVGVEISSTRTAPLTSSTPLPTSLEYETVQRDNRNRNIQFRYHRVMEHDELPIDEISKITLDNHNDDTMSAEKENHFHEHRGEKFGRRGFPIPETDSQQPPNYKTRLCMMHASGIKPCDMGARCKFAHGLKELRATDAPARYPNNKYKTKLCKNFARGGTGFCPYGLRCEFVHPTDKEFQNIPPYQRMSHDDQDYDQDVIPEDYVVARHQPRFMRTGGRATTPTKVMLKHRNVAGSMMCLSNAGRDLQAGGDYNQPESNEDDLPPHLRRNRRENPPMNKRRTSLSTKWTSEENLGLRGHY

[19] = Trypanosoma cruzi growth suppression in host cells – NIH3T3 host cells, beta-gal luminescence, confirmation (AID 2044); type: functional, cell-based;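 note: intracellular parasites grown in NIH/3T3 mouse fibroblasts as host cells; luminescent beta-galactosidase reporter signal from transgenic T. cruzi replicating inside host cells; inhibitors lower the luminescence signal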
[20] = NIH3T3 cell viability loss – ATP luminescence, mouse fibroblasts, counter-screen, dose response (AID 2010); type: functional, cell-based;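 note: cells exposed to compound for about 90 hours before reading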
[21] = Luminescence Cell-Based Dose Retest to Confirm Inhibitors of Cancer Stem Cells. [Related pubchem assays (depositor defined):AID2717, AID2721]; type: functional; details: Homo sapiens

CN1CCN(CC(O)(c2ccc(Cl)cc2)c2ccc(Cl)cc2)CC1
CC50 (Vero): > 25 µM (active)

c1ccc(C(c2ccccc2)[P+](c2ccccc2)(c2ccccc2)c2ccccc2)cc1
GI50 (P388/ADR): 12.4 µM (inactive)
GI50 (SN12K1): 0.345 µM (active)
GI50 (P388): 382 nM (active)

COc1cc2cc3c4cc(OC)c(OC)cc4cc[n+]3cc2cc1OC
GI50 (P388/ADR): 12.6 µM (inactive)
GI50 (SN12K1): > 61.9 µM (inactive)
GI50 (P388): 881 nM (active)

NCCc1cc(O)c(O)cc1O [OXIDOPAMINE HYDROCHLORIDE]
IC50 [1]: > 66 µM (inactive)
IC50 [2]: > 66 µM (inactive)
AC50 [3]: 4.12 µM (active)

CCC(=O)c1cn(CC(=O)Nc2ccccc2Cl)c2ccccc12
EC50 [4]: > 99 µM (inactive)
EC50 [5]: > 99 µM (inactive)
AC50 [6]: < 260 nM (active)
AC50 [7]: 6.05 µM (active)

CNc1[nH]c(=O)[nH]c(=O)c1N=Nc1cc(Cl)ccc1Cl
IC50 [8]: 11.6 µM (active)

O=[N+]([O-])c1ccc(Cl)c(S(=O)(=O)Nc2cccc(-c3ccc(N4CCOCC4)nn3)c2)c1
CC50 [9]: 37.3 µM (active)
IC50 (cells [10]): 32.5 µM (active)

O=c1oc(/C=C/c2ccc([N+](=O)[O-])s2)nc2ccccc12
IC50 (cells [11]): 10.7 µM (active)
EC50 [4]: > 99 µM (inactive)
EC50 [5]: > 99 µM (inactive)

CCCNC(=O)N1c2ccccc2Sc2ccccc21
CC50 (Vero): > 25 µM (active)

Cc1ccc(-c2ccc(/C=N/O)o2)cc1[N+](=O)[O-]
CC50 [9]: 36.3 µM (active)
IC50 (cells [10]): 33.5 µM (active)

O=C1NC(=S)NC(=O)C1=Cc1ccc(OCC(=O)N2CCCC2)cc1
IC50 [8]: 9 µM (active)

COc1ccccc1N1CCN(S(=O)(=O)Cc2ccccc2Cl)CC1
IC50 [12]: > 64 µM (inactive)

C#CCN1C(=O)S/C(=C\c2cc3c(cc2OC)OCO3)C1=O
EC50 [4]: 12.5 µM (active)
EC50 [5]: 17.1 µM (active)

Cc1c(CCC(=O)O)c(=O)oc2cc(OCc3ccc(Br)cc3)ccc12
IC50 [8]: 7.23 µM (active)

COc1cccc2c1C(=O)c1c(O)c3c(c(O)c1C2=O)CC(O)(C(=O)CO)CC3OC1CC(N)C(I)C(C)O1 (stereo not given)
GI50 (P388/ADR): 0.547 µM (active)
GI50 (P388): 61.2 nM (active)

Cc1cccc2sc(NC(=O)CN(C)S(=O)(=O)c3ccc(Br)s3)nc12
EC50 [13]: 12.2 µM (active)
EC50 [14]: 12.2 µM (active)

CN(Cc1cnc2nc(N)nc(N)c2n1)c1ccc(C(=O)NC(CCC(=O)O)C(=O)O)c2ccccc12 (stereo not given)
GI50 (P388/ADR): < 0.01 µM (active)
GI50 (SN12K1): 0.01 µM (active)
GI50 (P388): < 10 nM (active)

CCC(=O)NC(=S)Nc1ccc(NC(=O)c2ccc([N+](=O)[O-])cc2)cc1
IC50 [12]: > 64 µM (inactive)

Cc1c2cc[n+](CCN3CCCCC3)cc2c(C)c2c1[nH]c1ccc(O)cc12
GI50 (P388/ADR): 1.37 µM (inactive)
GI50 (SN12K1): 1.5 µM (inactive)
GI50 (P388): 11.1 nM (active)
AC50 (Cytochrome P450 2D6): 5.01 µM (inconclusive)

CCOC(=O)C(C)Sc1ccc2nnc(-c3ccc(F)cc3)n2n1 (stereo not given)
IC50 [12]: > 64 µM (inactive)

Cc1cc(-c2ccc(C(C)C)c(S(=O)(=O)NCc3ccco3)c2)on1
CC50 (Vero): 6.78 µM (active)

O=C(CCCOc1ccc(Cl)cc1Cl)Nc1ccccc1C(=O)O
CC50 [9]: 9.45 µM (active)
IC50 (cells [10]): 5.66 µM (active)

Nc1c(S(=O)(=O)O)cc2cc(S(=O)(=O)O)ccc2c1/N=N/c1ccc(-c2ccc(/N=N/c3c(N)c(S(=O)(=O)O)cc4cc(S(=O)(=O)O)ccc34)c(S(=O)(=O)O)c2)cc1
GI50 (P388/ADR): > 100 µM (inactive)
GI50 (SN12K1): > 100 µM (inactive)
GI50 (P388): > 79600 nM (inactive)

CC1(C)Cc2c(C#N)c(N3CCN(C(=O)c4ccco4)CC3)nc(Cc3ccccc3)c2CO1
EC50 [13]: 17.2 µM (active)
EC50 [14]: 11.8 µM (active)
EC50 [15]: 23.3 µM (active)
EC50 [16]: 26 µM (active)

CC1CCN(C(=O)CCN2C(=O)/C(=C/c3cccs3)SC2=S)CC1
EC50 [17]: > 300 µM (not active)
EC50 [18]: > 300 µM (not active)
CC50 (Vero): 17.3 µM (active)

Cc1cc(N2CCCC2)nc2ccc(NC(S)=NCCCN3CCC(C)CC3)cc12
EC50 [19]: 2.03 µM (active)
EC50 [20]: 14.2 µM (active)
CC50 (Vero): > 25 µM (active)
AC50 [3]: 2.27 µM (active)

Cc1ccc(S(=O)(=O)N2CCN(C(=O)/C=C/c3ccco3)CC2)cc1
IC50 [8]: 10.2 µM (active)

O=C(Nc1ccc(CN2CCOCC2)cc1)c1ccc(-c2ccc(Cl)cc2Cl)o1
AC50 [21]: 5.22 µM (active)
IC50 [12]: 50 µM (inactive)

CSc1nc(SC)c2cnn(CC3CO3)c2n1 (stereo not given)
GI50 (P388/ADR): 11.5 µM (inactive)
GI50 (SN12K1): 8.2 µM (inactive)
GI50 (P388): 15600 nM (inactive)

Cc1nnc(SCC2=C(C(=O)O)N3C(=O)C(NC(=O)Cn4nc(C(F)F)cc4C)C3SC2)s1 (stereo not given)
IC50 [8]: 7.83 µM (active)
